Measurements from ChEMBL document CHEMBL1201862, “PubChem BioAssay data set” (2004).
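Five compound concentrations were applied to cells in 96-well plates for 48 hours; endpoints were derived by simple linear interpolation of the resulting dose-response curve. GI50 is the concentration that inhibits growth by half.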 Calls of active or inactive are those of the source. Cut-off read from the data, not from the text of the source: active = GI50 up to about 1.1 µM and inactive = higher.

Experiments:
Assay in all cases: NCI anticancer screen, dose series, 48 h
NCI-H226 = system: NCI-H226
A498 = system: A498
SW-620 = system: SW-620
KM-20L2 = system: KM-20L2
HOP-62 = system: HOP-62
MOLT-4 = system: MOLT-4
SN12C = system: SN12C
SF-268 = system: SF-268
HCT-116 = system: HCT-116
SNB-75 = system: SNB-75
K562 = system: K562
SR = system: SR
RXF 393 = system: RXF 393
SK-MEL-5 = system: SK-MEL-5
HOP-92 = system: HOP-92
BT-549 = system: BT-549
MDA-N = system: MDA-N
MDA-MB-435 = system: MDA-MB-435
DU-145 = system: DU-145
MCF7 = system: MCF7

Measured: GI50

COC1(C)C(=O)N2C1N(C(=O)OCc1ccccc1)CC2(C)C (centres undefined)
inactive: NCI-H226 > 100 µM | A498 > 100 µM | SW-620 > 100 µM | KM-20L2 > 100 µM | HOP-62 > 100 µM | MOLT-4 > 100 µM | SN12C > 100 µM | SF-268 > 100 µM | HCT-116 > 100 µM | SNB-75 44.9 µM | K562 > 100 µM | SR > 100 µM | RXF 393 > 100 µM | SK-MEL-5 > 100 µM

Cc1cccc(/N=C/c2ccc(N(CCC#N)S(=O)(=O)c3ccccc3)cc2C)c1
inactive: NCI-H226 20.7 µM | A498 > 100 µM | SW-620 > 100 µM | KM-20L2 > 100 µM | HOP-92 33.3 µM | HOP-62 > 100 µM | MOLT-4 29.2 µM | SN12C > 100 µM | SF-268 58.9 µM | HCT-116 > 100 µM | SNB-75 67 µM | K562 34.5 µM | SK-MEL-5 > 100 µM

CC(=O)OC[C@@H]1[C@H]2CC(=O)O[C@H]2C[C@H]1OC(C)=O
inactive: A498 > 100 µM | SW-620 > 100 µM | KM-20L2 > 100 µM | HOP-92 > 100 µM | HOP-62 > 100 µM | MOLT-4 > 100 µM | SN12C > 100 µM | SF-268 > 100 µM | HCT-116 94 µM | SNB-75 > 100 µM | SR > 100 µM | RXF 393 > 100 µM | SK-MEL-5 > 100 µM

Cc1[nH]c2ccccc2c1C(=O)/C=C/c1ccccc1O
inactive: NCI-H226 > 10 µM | A498 > 100 µM | SW-620 > 100 µM | KM-20L2 > 100 µM | HOP-62 > 100 µM | MOLT-4 > 100 µM | SN12C > 100 µM | SF-268 > 100 µM | HCT-116 > 100 µM | SNB-75 > 100 µM | K562 > 100 µM | SR > 100 µM | RXF 393 > 100 µM | SK-MEL-5 > 100 µM

CCOC(=O)C1S/C(=N\C(=N)N[N+](=O)[O-])N=C1C (centres undefined)
inactive: NCI-H226 > 100 µM | A498 > 100 µM | SW-620 > 100 µM | KM-20L2 > 100 µM | HOP-92 > 100 µM | HOP-62 > 100 µM | MOLT-4 > 100 µM | SN12C > 100 µM | SF-268 > 100 µM | HCT-116 > 100 µM | SNB-75 > 100 µM | K562 > 100 µM | SR > 100 µM | RXF 393 > 100 µM

COC(=O)CCSC(=O)Nc1ccccc1Cl
inactive: NCI-H226 > 100 µM | A498 > 100 µM | SW-620 > 100 µM | KM-20L2 > 100 µM | HOP-62 > 100 µM | MOLT-4 > 100 µM | SN12C > 100 µM | SF-268 > 100 µM | HCT-116 > 100 µM | SNB-75 > 100 µM | K562 > 100 µM | SR > 100 µM

COC1OC(C)C2OC(C)(C)OC2C1OC(C)=O (centres undefined)
inactive: NCI-H226 > 100 µM | A498 > 100 µM | SW-620 > 100 µM | KM-20L2 > 100 µM | HOP-92 > 100 µM | HOP-62 > 100 µM | MOLT-4 > 100 µM | SN12C > 100 µM | SF-268 > 100 µM | HCT-116 > 100 µM | K562 > 100 µM | SR > 100 µM | RXF 393 39.7 µM | SK-MEL-5 > 100 µM

O=C(CC1(O)C(=O)Nc2c(Cl)cc(Cl)cc21)c1ccc(F)cc1 (centres undefined)
inactive: NCI-H226 33.3 µM | SW-620 43.7 µM | KM-20L2 53 µM | HOP-92 47.1 µM | HOP-62 48 µM | SN12C 28.4 µM | SF-268 39.6 µM | HCT-116 35.4 µM | SNB-75 25.9 µM | SR 29.2 µM | RXF 393 27 µM

COc1ccc(/N=N/c2c(-c3ccccc3)nn(C(=O)CC(=O)Nc3cccc(Cl)c3)c2-c2ccccc2)cc1
inactive: NCI-H226 4.82 µM | A498 > 100 µM | SW-620 > 100 µM | KM-20L2 66.1 µM | HOP-92 40.6 µM | HOP-62 24.2 µM | MOLT-4 70.1 µM | SN12C > 100 µM | SF-268 > 100 µM | HCT-116 45.6 µM | SNB-75 6.08 µM | K562 85.7 µM | SK-MEL-5 72.9 µM

O=S(=O)(c1ccccc1)C(c1ccc2ccccc2n1)S(=O)(=O)c1ccccc1
inactive: BT-549 > 100 µM | NCI-H226 > 100 µM | MDA-N > 100 µM | A498 > 100 µM | SW-620 > 100 µM | HOP-92 > 100 µM | MDA-MB-435 > 10 µM | HOP-62 78 µM | MOLT-4 > 100 µM | DU-145 > 100 µM | SN12C > 100 µM | SF-268 > 100 µM | HCT-116 > 100 µM | SNB-75 > 100 µM | K562 > 100 µM | SR > 100 µM | RXF 393 > 100 µM | MCF7 > 100 µM | SK-MEL-5 > 100 µM

O=C1NC(SSC2=NNC3(C(=O)N2)c2ccccc2-c2ccccc23)=NNC12c1ccccc1-c1ccccc12
inactive: BT-549 > 10 µM | NCI-H226 > 10 µM | MDA-N > 10 µM | A498 > 10 µM | SW-620 > 10 µM | HOP-92 > 10 µM | MDA-MB-435 > 10 µM | HOP-62 > 10 µM | MOLT-4 > 10 µM | DU-145 > 10 µM | SN12C > 10 µM | SF-268 > 10 µM | HCT-116 > 10 µM | SNB-75 > 10 µM | K562 > 10 µM | SR > 10 µM | RXF 393 > 10 µM | MCF7 > 10 µM | SK-MEL-5 > 10 µM

Oc1cccnc1CN1CCCCC1
inactive: BT-549 > 100 µM | NCI-H226 > 100 µM | MDA-N > 100 µM | A498 > 100 µM | SW-620 > 100 µM | HOP-92 > 100 µM | MDA-MB-435 > 100 µM | HOP-62 > 100 µM | MOLT-4 > 100 µM | DU-145 > 100 µM | SN12C > 100 µM | SF-268 > 100 µM | HCT-116 > 100 µM | SNB-75 > 100 µM | K562 > 100 µM | SR > 100 µM | RXF 393 > 100 µM | MCF7 > 100 µM | SK-MEL-5 > 100 µM

CN(C)c1ccc(/C=C(\NC(=O)c2ccccc2)C(=O)NCC(=O)O)cc1
inactive: BT-549 > 100 µM | NCI-H226 > 100 µM | MDA-N > 100 µM | A498 > 100 µM | SW-620 > 100 µM | HOP-92 > 100 µM | MDA-MB-435 > 100 µM | HOP-62 > 100 µM | MOLT-4 > 100 µM | DU-145 > 100 µM | SN12C > 100 µM | SF-268 > 100 µM | HCT-116 > 100 µM | SNB-75 > 100 µM | K562 > 100 µM | SR > 100 µM | RXF 393 > 100 µM | MCF7 > 100 µM | SK-MEL-5 > 100 µM
